The test system of assay [1] is Fusarium spp. In words: Field trial onion var. Elenka, emergence and bio-control under natural Fusarium spp. inoculum pressure (FC2020). Format: in vivo. The conditions noted are these: for number of emerged seedlings: control 182.50; for number of emerged plants: fourth survey (97 days after the sowing). The protocol:
(§1) In this experiment, onion var. Elenka was tested. The test experimental design was organized at randomized blocks for the 4 treatment types, each in duplicate. In the extended test carried out at an experimental field with high natural pressure of fungal inoculum of Fusarium spp., the experimental plots had the following dimensions: 1.8 m (width)×25 m (length) with four sowing rows per parcel The sowing was performed with mechanical seeder (mod. SPX 2015-Bassi Seminatrici, IT) at the density of 600,000 onion seeds per hectare. The surveys were carried out on a length of 20 meters, in the medial part of each respective plot. The recorded data of disease severity were subjected to statistical analysis of the variance (one-way ANOVA). The results were compared to the post hoc Tukey's HDS test.
In the preparation phase before the sowing, the fields were not treated with herbicides or fungicides. During the experimental test, carried out following the agronomical good practices, harmful bacteria and insects' infections were not observed, causing damages to the cultures during the experiment. The weeds were controlled according to the disciplinary regulation described in Cornell Vegetable Management Guidelines and Recommendations (Reiners et al., 2019).
Samples of symptomatic material such as onion roots and bulbs were withdrawn during the cultural season for isolating Fusarium-like fungal colonies and the subsequent identification thereof and confirmation of the etiological agent, through a preliminary analysis of conidial identification at the microscope, followed by a molecular analysis. The molecular identification was carried out through the amplification of the conserved region ITS by polymerase chain reaction (PCR) according to White et al., 1990. The amplification products were then purified and sequenced at Bio-Fab Research s.r.l. (Rome, IT). The nucleotide sequences of ribosomal DNA of the conserved region ITS (Internal Transcription Spaces) were then analyzed through the program for the research of sequence similarity in the international DNA database BLAST (Basic Local Alignment Search Tool;//www.ncbi.nlm.nih.gov/BLAST).

Assay [2] has as its system fennel var. Crono. In words: Commercial field trial fennel var. Crono, emergence and germination (AQ2020). Format: in vivo, Foeniculum vulgare. From the text:
In this experiment, the fennel var. Crono was used, in order to study the effect of Streptomyces sp. DLS 1568, applied as microbial coating agent, on the emergence and germination of the crop.
The test experimental design was organized at randomized blocks for the 4 treatment types, each in duplicate (replicate). In the experimental test carried out at a plot, the experimental parcels had the following dimensions: 1.5 m (width)×100 m (length) with four sowing rows per plot. The sowing was carried out with a mechanical seeder. During the experimental field trials, conducted according to the best agronomical practices, harmful bacteria and insects' infections were not observed, causing damages to the cultures during the experiment. Weeds were controlled according to the farms' integrated weed management.
The first survey was carried out 20 days after the sowing, assessing the whole length of each plots. The second survey was carried out 32 days after seed sowing and the third and last survey was done after one month from the second survey. The recorded data were subjected to the statistical analysis of the variance (one-way ANOVA). The results were compared to the post hoc Tukey's HDS test.

Assay [3] has as its system Fusarium spp. The assay is described as follows: Field trial onion var. Fundador, emergence and bio-control under natural Fusarium spp. inoculum pressure (FC2020). Conditions: first survey (18 days after the sowing), control 178.12. It is filed as in vivo. As for the experimental part: as §1
For trial description, experimental design, agronomic practices, see Example 7. […]. The recorded data were subjected to statistical analysis of the variance (one-way ANOVA). The results were compared to the post hoc Tukey's HDS test.

The subject of the next assay is onion var. Elenka. In words: Field trial onion var. Elenka, agronomic features (phenological development) (FC2020). Format: in vivo, Allium cepa. As for the experimental part:
as §1
For the assay description, experimental design, agronomic practices, see Example 7. Before sowing, the fields were not treated with herbicides or fungicides. During the experimental field trial, carried out according to the best agronomical practices, harmful bacteria and insects' infections were not observed, causing damages to the cultures during the experiment. The weeds were managed according to the disciplinary regulations described in Cornell Vegetable Management Guidelines and Recommendations (Reiners et al., 2019). […]

In assay [4] the test system is fennel var. Crono. The assay is described as follows: Field trial fennel var. Crono, emergence, germination and vigor (AQ2021). It is filed as in vivo, Foeniculum vulgare. The conditions noted are these: for average vigor index: scale 1-4 (Table 8). The protocol: For the field trial description, experimental design, and the applied agronomic practices, see Example 10.
For this experiment, sowing was carried out with mechanical seeder. The first survey was carried out 14 days after the sowing, assessing the whole length of each plot: 1.5 m (width)×100 m (length) with four sowing rows per plot. The second survey was carried out one month after sowing and the third and last survey two months after sowing, assessing both number of emerged plants and vigor according to the assessment scale described in Table 8. The recorded data were subjected to the statistical analysis of the variance (one-way ANOVA). The results were compared to the post hoc Tukey's HDS test.

Where [5] appears, read: first survey (18 days after the sowing).
Setting [6] is: second survey (42 days after the sowing).

`N#Cc1c[nH]cc1-c1cccc2c1OC(F)(F)O2` [Fludioxonil, fludioxonil]: the “number of emerged seedlings” value in the assay on Fusarium spp. [1] (setting [5]) is 175.63. Besides, the “number of emerged plants” value in the assay with Fusarium spp. [1] is reported as 72.75. The “number of plants emerged” value is 147.00 in the assay with Fusarium spp. [1] (setting [6]) and 210.12 with Fusarium spp. [3]. The “Number of emerged plants, Survey 1 Average value” in the assay on fennel var. Crono [2] (AQ2020, 20 days after the sowing, control 339.50) was found to be 339.50; with fennel var. Crono [4] (AQ2021, 14 days after the sowing, control 313.00), 323.88. Besides, the “Number of emerged plants, Survey 2 Average value” came out at 217.30 in the assay with fennel var. Crono [2] (AQ2020, 32 days after sowing, after manual thinning, control 194.40) and 205.00 in the assay with fennel var. Crono [4] (AQ2021, one month after sowing, after manual thinning, control 180.75). In addition, the “Number of emerged plants, Survey 3 Average value” came to 198.62 in the assay with fennel var. Crono [2] (AQ2020, one month from the second survey, control 187.00) and 186.63 in the assay with fennel var. Crono [4] (AQ2021, two months after sowing, control 173.00). For the same compound, the plant height with onion var. Elenka (second survey) amounted to 10.11 cm. Also, the average vigor index amounted to 2.49 in the assay with fennel var. Crono [4] (AQ2021, second survey, control 2.34) and 3.01 in the assay with fennel var. Crono [4] (AQ2021, third survey, control 2.71).

Take `O=[O+][O-]` [Ozone]: in the assay with Fusarium spp. [1] (setting [5]), the “increase of the germinal emergence with respect to the control” value was determined as 17%, the “increase of the germinal emergence with respect to the treatment with Streptomyces sp. SA51” value turned out to be 26%, the “increase of the germinal emergence with respect to the treatment with fludioxonil” value was found to be 22% and the “number of emerged seedlings” value was found to be 214.63. Also, the “number of emerged plants” value with Fusarium spp. [1] turned out to be 119.17. Moreover, in the assay on Fusarium spp. [1] (setting [6]), the “increase of number of emerged plants with respect to Streptomyces sp. SA51” value came to 51%, the “increase of number of emerged plants with respect to fludioxonil” value worked out at 41% and the “number of plants emerged” value was 207.88. For the same compound, the “number of plants emerged” value in the assay on Fusarium spp. [3] stood at 185.87. Moreover, the number of leaves in the assay with onion var. Elenka (third survey) is 4.69.

These data come from patent publication US20250359555A1, “STREPTOMYCES VENEZUELAE FOR THE BIOLOGICAL CONTROL OF PLANT DISEASES” (UNIVERSITA' DEGLI STUDI DI MODENA E REGGIO EMILIA (80%), priority 2022, published 2025).
